{
  "source": "paper PMC6482291",
  "about": "“Anticonvulsant Activity of Pterostilbene in Zebrafish and Mouse Acute Seizure Tests” (Neurochemical Research, 2019)",
  "key": {"[1]": {"tested_on": "6 Hz-induced psychomotor seizures in mice", "assay": "6 Hz psychomotor seizure test with supramaximal stimulation (32 and 44 mA)", "format": "in vivo", "settings": "Mus musculus, ip, 30 min before test", "excerpt": "Psychomotor (limbic) seizures were induced by transcorneal stimulation (6 Hz, 0.2 ms rectangular pulse, 3 s duration) generated by a Grass S48 stimulator coupled with a constant current unit CCU1 (both from Grass Technologies, West Warwick, RI, USA). Before stimulation a drop of ocular anesthetic, 1% tetracaine hydrochloride solution, was applied into the animals’ corneas. The electrodes were soaked in saline to ensure the good electrical contact. During the stimulation animals were restrained manually and immediately after the stimulation were placed in a Plexiglas box for observation of presence or absence of the psychomotor seizures. These seizures were characterized by immobilization or stun, often associated with rearing, forelimb clonus, twitching of vibrissae and elevated tail (Straub-tail), lasting at least 10 s from the stimulation. Lack of the above symptoms or their cessation within 10 s from the stimulation was considered as absence of seizure activity.\nIn the present study two 6 Hz-induced psychomotor seizure tests were performed: (1) the 6 Hz psychomotor seizure threshold test which employed stimulation at varied current intensities, and (2) the 6 Hz psychomotor seizure test with supramaximal stimulation at 32 mA and 44 mA. […]"}, "mice": {"tested_on": "mice", "assay": "Chimney test", "format": "in vivo", "settings": "for Impairment of motor coordination (percentage of animals): 30 min before test", "description": "The chimney test was performed to evaluate influence of PTE on motor coordination in mice. During the test mice had to climb backwards up the plastic transparent cylinder (inner diameter 3 cm and length 30 cm) with gravelly inside. The inability of mice to escape from the cylinder within 60 s was considered as an motor impairment. Results obtained in the test were presented as percent of impaired mice in groups of 10–12 animals and were compared with the Fisher’s exact probability test."}, "[2]": {"tested_on": "PTZ-induced seizure-like behavior in zebrafish larvae", "assay": "Larval zebrafish PTZ seizure assay, locomotor activity tracking", "format": "in vivo, Danio rerio", "settings": "10 µM PTE, 2 h incubation, 20 mM PTZ; vs vehicle + PTZ", "description": "The locomotor activity of larvae was assessed as previously described. A single 117 hpf zebrafish larvae was placed in a 48-well plate (one larva per well) filled with 200 µl of vehicle or PTE solution (10 µM). Subsequently, larvae were incubated for 2 h, at 28.5 °C. Next, 100 µl of vehicle or PTZ was added to each well. Within 5 min, plates were positioned in an automated tracking device (ZebraBox, Viewpoint, Lyon, France) and larvae were tracked for 30 min, with a 5 min integration interval. All measurements were performed at the same daytime period. The […] distance (in millimeters) covered by each larva was recorded. Three independent experiments were done (n = 12/group) and the data were pooled together. […] The data were normalized against PTZ values."}, "[3]": {"tested_on": "maximal electroshock seizures in mice", "assay": "Maximal electroshock seizure threshold (MEST) test", "format": "in vivo", "settings": "for CS50 (seizure threshold): 30 min before test, 95% confidence limits in brackets", "excerpt": "Seizures in the MEST test were evoked by applying a sine-wave alternating current (maximal output voltage 500 V, 50 Hz for 0.2 s) generated by constant current stimulator (Rodent Shocker, Type 221, Hugo Sachs Elektronik, Freiburg, Germany). The stimulation was delivered by saline-socked transcorneal electrodes. Before the stimulation 1% solution of tetracaine hydrochloride was applied into animals’ eyes for local anesthesia. During the stimulation animals were restrained manually and immediately after the stimulation they were placed in the Plexiglas box for observation. The endpoint evaluated in the test was the maximal electroconvulsion which was defined as extension of the hindlimbs above a 90° angle to the torso of animal.\nThe threshold for maximal electroshock was determined according to the up-and-down method described by Kimball et al.. The mice in the experimental group were subjected to the stimuli with different current intensities (range of 8–30 mA) which changes in 0.06-log steps. If stimulated mouse respond with seizures, the next mouse in the group was stimulated with current of intensity 0.06-log step lower than the previous one. […] Groups of 20 stimulated animals were used to calculate the threshold current strength (CS50 in mA; the current strength which induces tonic hindlimb extension in 50% of the tested animals) with SEM.\nCS50 values were compared with one-way ANOVA followed by the Tukey’s multiple comparison test."}},
  "data": [
    {"compound": "COc1cc(/C=C/c2ccc(O)cc2)cc(OC)c1", "note": "[PTE, trans-3,5-dimethoxy-4′-hydroxy-trans-stilbene]", "values": [
      {"measurement": "ED50", "setting": "[1]; current intensity 32 mA", "value": "506 ± 44.7", "unit": "mg/kg"},
      {"measurement": "ED50", "setting": "[1]; current intensity 44 mA", "value": "541 ± 41.5", "unit": "mg/kg"},
      {"measurement": "Impairment of motor coordination (percentage of animals)", "setting": "mice; PTE 50 mg/kg ip", "value": 0, "unit": "%"},
      {"measurement": "Impairment of motor coordination (percentage of animals)", "setting": "mice; PTE 100 mg/kg ip", "value": 0, "unit": "%"},
      {"measurement": "Impairment of motor coordination (percentage of animals)", "setting": "mice; PTE 400 mg/kg ip", "value": 0, "unit": "%"},
      {"measurement": "Impairment of motor coordination (percentage of animals)", "setting": "mice; PTE 600 mg/kg ip", "value": 0, "unit": "%"},
      {"measurement": "influence on motor coordination", "setting": "mice; PTE 50–800 mg/kg ip", "value": "did not significantly influence"},
      {"measurement": "PTZ-induced locomotor activity in zebrafish larvae", "setting": "[2]", "value": "significantly reduced"},
      {"measurement": "CS50 (seizure threshold)", "setting": "[3]; PTE 100 mg/kg ip", "value": "11.40 (10.93–11.87) mA"},
      {"measurement": "CS50 (seizure threshold)", "setting": "[3]; PTE 200 mg/kg ip", "value": "16.22 (14.80–17.78) mA"},
      {"measurement": "increase of seizure threshold vs negative control", "setting": "[3]; PTE 200 mg/kg ip, p < 0.001", "value": "over 70%"},
      {"measurement": "seizure threshold higher than in VPA-treated group (150 mg/kg)", "setting": "[3]; PTE 200 mg/kg ip, p < 0.05", "value": 15, "unit": "%"}
    ]}
  ]
}
